In brackets after ≈: the same amount, converted by molar mass. Read-outs that look alike come from different tables or passages of the source.
Assays:
CHI Log D procedure = type: physicochemical; details: for chromatographic logD: pH 7.4, CHI Log D
[1] = biological target: T1, beta-catenin/TCF4 engagement (Homo sapiens, UniProt P35222); assay: Nano-BRET target engagement assay (B-cat-Halo & TCF4-Luc in HEK293 cells); type: cell-based
T1 construct: expressed in transfected cells; host or cells: HEK293
T1 sequence (P35222 1-781): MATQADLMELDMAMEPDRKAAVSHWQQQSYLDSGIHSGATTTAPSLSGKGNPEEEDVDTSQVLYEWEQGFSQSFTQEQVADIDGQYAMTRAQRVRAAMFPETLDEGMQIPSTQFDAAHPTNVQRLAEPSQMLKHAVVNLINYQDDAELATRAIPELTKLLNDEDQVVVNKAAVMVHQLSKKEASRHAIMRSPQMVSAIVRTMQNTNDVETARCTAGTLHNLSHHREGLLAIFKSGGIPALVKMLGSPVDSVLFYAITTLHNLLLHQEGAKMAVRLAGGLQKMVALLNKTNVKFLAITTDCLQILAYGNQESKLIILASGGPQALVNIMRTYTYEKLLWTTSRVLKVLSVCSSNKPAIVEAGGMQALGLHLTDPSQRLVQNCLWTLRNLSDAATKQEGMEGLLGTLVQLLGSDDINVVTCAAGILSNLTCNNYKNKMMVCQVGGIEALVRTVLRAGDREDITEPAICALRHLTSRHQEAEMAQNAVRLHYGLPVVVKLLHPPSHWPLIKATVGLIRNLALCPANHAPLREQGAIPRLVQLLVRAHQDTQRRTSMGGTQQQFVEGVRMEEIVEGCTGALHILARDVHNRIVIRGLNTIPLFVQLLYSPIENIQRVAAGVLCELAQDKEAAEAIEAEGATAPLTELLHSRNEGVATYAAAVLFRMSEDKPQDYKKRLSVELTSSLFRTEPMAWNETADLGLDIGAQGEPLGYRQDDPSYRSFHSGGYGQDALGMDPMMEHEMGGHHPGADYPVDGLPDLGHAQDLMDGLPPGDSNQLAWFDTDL

[2] = biological target: T2, full-length beta-Catenin (Uniprot ID P35222) (Homo sapiens, UniProt P35222); assay: Fluorescence polarization IC50 (beta-catenin / 5FAM-TCF4 10-53 competition); type: binding
T2 construct: 10 nM full-length beta-Catenin (Uniprot ID P35222)
T2 sequence (P35222 1-781): T1 sequence (P35222 1-781)

Solubility in PBS = type: physicochemical
Outline: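 HPLC quantitation of peptide remaining in the PBS supernatant after ultracentrifugation, referenced to a 50 μM solution in DMSO.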

[3] = absolute IC50, read-out: NanoBRET Abs IC50

Row | SMILES | chromatographic logD (CHI Log D procedure) | inhibition at 10 µM ([1]; HEK293, @ 10 uM, read-out: NanoBRET % inh @ 10 uM) | IC50 ([1]; read-out: NanoBRET Abs IC50) | IC50 ([2]; read-out: beta-Catenin FP IC50) | Solubility (Solubility in PBS; Solubility (uM)) | CHI Log D (CHI Log D procedure; pH 7.4) | IC50 ([1]; read-out: NanoBRET IC50) | IC50 ([2]; fluorescence polarization, read-out: beta-Catenin FP IC50) | IC50 ([2]; read-out: FP EC50) | Solubility (Solubility in PBS) | IC50 [1, 3]
1 | CC(=O)N1CCC[C@]12CC=CCCCC1(CCCC=CCCCCCC[C@@](C)(C(=O)N[C@@H](Cc3ccsc3)C(=O)N[C@@H](Cc3csc4ccccc34)C(=O)N[C@@H](CCC(N)=O)C(N)=O)NC(=O)[C@H](CC(N)=O)NC(=O)[C@H](Cc3ccccc3)NC(=O)[C@H](C)NC(=O)[C@H](C)NC(=O)[C@H](CN(CC(=O)O)CC(F)(F)F)NC(=O)[C@H](CC(=O)O)NC1=O)NC(=O)[C@H](CC1CCCCC1)NC(=O)[C@H](CC(=O)O)NC2=O (stereo partly drawn) [I-708, Ac-PL3-Asp-Cha-B5-Asp-TfeGA-Ala-Ala-Phe-Asn-S8-3Thi-BztA-Gln-NH2] | – | – | – | – | – | 2.976 | 11.5 µM | 0.052 µM | 0.052 µM | 47 µM (≈ 94.6 µg/mL) | –
2 | CC(=O)N1CCC[C@]12CC=CCCCC1(CCCC=CCCCOC(=O)N3CC[C@@](C(=O)N[C@@H](Cc4ccsc4)C(=O)N[C@@H](Cc4csc5ccccc45)C(=O)N[C@@H](CCC(N)=O)C(N)=O)(C3)NC(=O)[C@H](CC(N)=O)NC(=O)[C@H](Cc3ccccc3)NC(=O)[C@H](CCCCNC(=O)C34CC5CC(CC(C5)C3)C4)NC(=O)[C@H](C)NC(=O)[C@H](CC(=O)O)NC(=O)[C@H](CC(=O)O)NC1=O)NC(=O)[C@H](CC(C)(C)C)NC(=O)[C@H](CC(=O)O)NC2=O (stereo partly drawn) [I-899, Ac-PL3-Asp-Npg-B5-Asp-Asp-Ala-[AdamantC]Lys-Phe-Asn-PyrS2-3Thi-BztA-Gln-NH2] | 2.26 | – | > 20 µM | 0.028 µM | 40 µM (≈ 85.5 µg/mL) | – | – | – | – | – | –
3 | CC(=O)N1CCC[C@]12CC=CCCCC1(CCCC=CCCCOC(=O)N3CC[C@@](C(=O)N[C@@H](Cc4ccsc4)C(=O)N[C@@H](Cc4csc5ccccc45)C(=O)N[C@@H](CCC(N)=O)C(N)=O)(C3)NC(=O)[C@H](CC(N)=O)NC(=O)[C@H](Cc3ccccc3)NC(=O)[C@H](C)NC(=O)[C@H](C)NC(=O)[C@H](Cc3ccc(O)cc3)NC(=O)[C@H](CC(=O)O)NC1=O)NC(=O)[C@H](CC(C)(C)C)NC(=O)[C@H](CC(=O)O)NC2=O (stereo partly drawn) [I-842, Ac-PL3-Asp-Npg-B5-Asp-Tyr-Ala-Ala-Phe-Asn-PyrS2-3Thi-BztA-Gln-NH2] | 2.39 | – | – | 0.034 µM | – | – | – | – | – | 10 µM (≈ 19.7 µg/mL) | 47.9 µM

The remaining lines, values ahead:

Row | chromatographic logD (CHI Log D procedure) | inhibition at 10 µM ([1]; HEK293, @ 10 uM, read-out: NanoBRET % inh @ 10 uM) | IC50 ([1]; read-out: NanoBRET Abs IC50) | IC50 ([2]; read-out: beta-Catenin FP IC50) | Solubility (Solubility in PBS; Solubility (uM)) | CHI Log D (CHI Log D procedure; pH 7.4) | IC50 ([1]; read-out: NanoBRET IC50) | IC50 ([2]; fluorescence polarization, read-out: beta-Catenin FP IC50) | IC50 ([2]; read-out: FP EC50) | Solubility (Solubility in PBS) | IC50 [1, 3] | SMILES
4 | 2.28 | 31% | 21.6 µM | 0.006 µM | 42 µM (≈ 75.2 µg/mL) | – | – | – | – | – | – | CC(=O)N1CCC[C@]12CC=CCCCC1(CCCC=CCCCOC(=O)N3CC[C@@](C(=O)N[C@@H](Cc4ccsc4)C(=O)N[C@@H](Cc4csc5ccccc45)C(N)=O)(C3)NC(=O)[C@H](CC(N)=O)NC(=O)[C@H](Cc3ccccc3)NC(=O)[C@H](C)NC(=O)[C@H](C)NC(=O)[C@H](CC(=O)O)NC(=O)[C@H](CC(=O)O)NC1=O)NC(=O)[C@H](CC(C)(C)C)NC(=O)[C@H](CC(=O)O)NC2=O (stereo partly drawn) [I-785, Ac-PL3-Asp-Npg-B5-Asp-Asp-Ala-Ala-Phe-Asn-PyrS2-3Thi-BztA-NH2]
5 | 2.36 | – | 24.3 µM | 0.016 µM | 46 µM (≈ 86 µg/mL) | – | – | – | – | – | – | CC(=O)N1CCC[C@]12CC=CCCCC1(CCCC=CCCCOC(=O)N3CC[C@@](C(=O)N[C@@H](Cc4ccccc4)C(=O)N[C@@H](Cc4csc5ccccc45)C(=O)N[C@@H](CO)C(N)=O)(C3)NC(=O)[C@H](CO)NC(=O)[C@H](Cc3ccccc3)NC(=O)[C@H](C)NC(=O)[C@H](C)NC(=O)[C@H](CC(=O)O)NC(=O)[C@H](CC(=O)O)NC1=O)NC(=O)[C@H](CC1CCCCC1)NC(=O)[C@H](CC(=O)O)NC2=O (stereo partly drawn) [I-1100, Ac-PL3-Asp-Cha-B5-Asp-Asp-Ala-Ala-Phe-Ser-PyrS2-Phe-BztA-Ser-NH2]
6 | 2.42 | – | – | 0.011 µM | 47 µM (≈ 90.9 µg/mL) | – | – | – | – | – | 8.8 µM | CC(=O)N1CCC[C@]12CC=CCCCC1(CCCC=CCCCOC(=O)N3CC[C@@](C(=O)N[C@@H](Cc4ccccc4Cl)C(=O)N[C@@H](Cc4csc5ccccc45)C(=O)N[C@@H](C(N)=O)[C@H](C)O)(C3)NC(=O)[C@H](CC(N)=O)NC(=O)[C@H](Cc3ccccc3)NC(=O)[C@H](C)NC(=O)[C@H](C)NC(=O)[C@H](CCC(=O)O)NC(=O)[C@H](CC(=O)O)NC1=O)NC(=O)[C@H](CC(C)(C)C)NC(=O)[C@H](CC(=O)O)NC2=O (stereo partly drawn) [I-1031, Ac-PL3-Asp-Npg-B5-Asp-Glu-Ala-Ala-Phe-Asn-PyrS2-2C1F-BztA-dThr-NH2]
